Source: patent US20240408008A1, “AN IN-SITU GELLING ENEMA OF RIFAMYCIN FOR TREATING POUCHITIS AND DISTAL ULCERATIVE COLITIS” (COSMO TECHNOLOGIES LTD., priority 2021, published 2024)

Experiments:
[1] = test system: mTOR pathway; test: Inhibition of mTOR and S6R phosphorylation in primary colonic epithelial cells, flow cytometry; format: cell-based, human; conditions: Homo sapiens, Epithelial cell; serum stimulated primary colonic epithelial cells, 48 hr; read-out: IC50, % cells positive for anti-pmTOR and anti-pS6R relative to DMSO
Protocol: To evaluate Rifamycin activity on the mTOR pathway, primary colonic epithelial cells were serum starved for 24 hr and restimulated with serum for 48 hr to induce phosphorylation of mTOR and its downstream target protein […]. Serum stimulated cells were treated with Rifamycin SV, Rifaximin, the positive control Rapamycin, or the negative vehicle control DMSO. Cells were fixed, stained with antibodies against pmTOR and pS6R then analyzed by flow cytometry.

[2] = test system: DSS induced colitis; test: Acute colitis induced by Dextran Sulfate Sodium (DSS); format: in vivo; conditions: mice, DSS 2%, PO 100 mg/Kg
Protocol: In situ gel enema formulation batch 7663 (same formulation as batch 7639) in vivo efficacy was tested in a murine model of acute colitis induced by Dextran Sulfate Sodium (DSS). This animal model is perhaps the most widely used mouse model of colitis and employs DSS, a chemical colitogen with anticoagulant properties, to induce disease which closely resembles human UC. DSS induced intestinal inflammation results in damage to the epithelial monolayer lining the large intestine allowing the dissemination of proinflammatory intestinal contents (e.g. bacteria and their products) into underlying tissue.
For this study, a group of mice was treated by enema with Batch 7663 (indicated as CB0125 in the figures) (dose 45 mg/kg), one group was treated by enema with Placebo Batch 7679 as a comparator for 7663; a group was treated by enema with Rifamycin powder dissolved in water (67 mg/kg). One group of mice was treated orally PO with 5-ASA at the dose of 100 mg/Kg; this group was introduced as positive control. 5-ASA is the golden standard therapy for inflammatory bowel diseases, including UC, distal UC and proctitis. One group was treated by enema with the vehicle (H2O) only, as negative control.
Briefly DSS (2%) was dissolved in water (w/v) and given to mice in place of normal drinking water. DSS water was provided ad libitum for 5 days and was changed daily. This period was followed by a washout period of 5 days with water only. Mice were weighed daily and monitored for clinical status including hunching, mobility, soft stool and/or diarrhoea. At end of the study mice were sacrificed by CO2 inhalation. Immediately after euthanasia, the animals were laparatomyzed and intestine was exteriorized. The entire colon was isolated from the caecum to the anus, placed unstretched on a ruler and then measured and weighed after rinsing the lumen with saline. The weight was normalized to the colon length by calculating the ratio.
For histological analysis of colon samples, about 2 cm of the middle portion of isolated colon was fixed in a 10% formalin. Each fixed fragment was embedded in paraffin. The slides were stained with haematoxylin and eosin and assessed according to the histological score.

| IC50 [1] | Structure (SMILES) | histological score ([2]; compared to 7663) | clinical score AUC ([2]; compared to batch 7663) |
| --- | --- | --- | --- |
| 43 µM | CO[C@H]1/C=C/O[C@@]2(C)Oc3c(C)c(O)c4c(O)c(c5c(nc6cc(C)ccn65)c4c3C2=O)NC(=O)/C(C)=C\C=C\[C@H](C)[C@H](O)[C@@H](C)[C@@H](O)[C@@H](C)[C@H](OC(C)=O)[C@@H]1C [Rifaximin] |  |  |
|  | Nc1ccc(O)c(C(=O)O)c1 [Batch 5-ASA, 5-aminosalycilic acid] | lower improvement | lower efficacy |
| 0.53 µM | CO[C@H]1C[C@@H]2CC[C@@H](C)[C@@](O)(O2)C(=O)C(=O)N2CCCC[C@H]2C(=O)O[C@H]([C@H](C)C[C@@H]2CC[C@@H](O)[C@H](OC)C2)CC(=O)[C@H](C)/C=C(\C)[C@@H](O)[C@@H](OC)C(=O)[C@H](C)C[C@H](C)/C=C/C=C/C=C/1C [Rapamycin] |  |  |
